Experimental data from patent publication US20240246918A1, “COMPOUNDS AND COMPOSITIONS AS EIF4E INHIBITORS AND THE USES THEREOF” (Ribometrix, Inc., priority 2022, published 2024).
pIC50: −log10 of the molar value. Like-named read-outs stand apart in the source and are kept apart here.

Experiments:
human eIF4E protein = molecular target: T1, human eIF4E protein (Homo sapiens, UniProt P06730); assay: Biochemical competitive binding assay (TR-FRET competition, EDA-m7GDP-ATTO-647N probe); details: read-out: hEIF4E TR-FRET IC50
T1 construct: purchased Novus NBP-45314
Procedure, shortened: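 His-tagged human eIF4E (4 nM) was preincubated with Eu-anti-His antibody (2.5 nM) and added to compound (11-point, 4-fold dilutions) for 15 min. Then 5 nM EDA-m7GDP-ATTO-647N was added for 15 min, in HEPES pH 7.5, 100 mM KCl. The 665/620 TR-FRET ratio was normalized to controls, and IC50 was taken from 4-parameter fits.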

[1] = tested on: cap-dependent translation in Flp-In-293 reporter cells; assay: Cellular cap-dependent translation inhibition assay (dual luciferase assay, DLA; Fluc/Rluc ratio, 24 hours); assay type: cell-based
[2] = tested on: COLO 205 colorectal tumor cells; assay: Tumor cell viability inhibition assay (CellTiter-Glo 2.0, 72 hours); assay type: cell-based; details: COLO 205 cell viability
Procedure, shortened: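 COLO 205 cells (1500/well, RPMI-1640 + 10% FBS) exposed for 72 h to an 11-point, 4-fold dilution series; cellular ATP read by CellTiter-Glo 2.0 luminescence. Data normalized to DMSO and maximum-inhibition controls; IC50 from 4-parameter curve fit.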

[3] = Homo sapiens, Flp-In-293, 24 h, dual luciferase assay, Flp-In-293 reporter cells, 24 hours, Fluc/Rluc ratio, read-out: DLA 205 IC50
[4] = dual luciferase assay, Flp-In-293 reporter cells, 24 hours, Fluc/Rluc ratio, read-out: DLA 205 IC50

T1 sequence (P06730 whole entry): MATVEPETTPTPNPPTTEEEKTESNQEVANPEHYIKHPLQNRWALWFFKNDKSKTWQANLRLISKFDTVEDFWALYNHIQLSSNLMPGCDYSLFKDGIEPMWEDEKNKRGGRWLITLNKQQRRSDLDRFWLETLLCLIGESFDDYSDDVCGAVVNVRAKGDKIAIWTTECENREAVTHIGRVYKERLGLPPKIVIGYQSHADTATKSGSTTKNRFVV

SMILES	pIC50 (human eIF4E protein)	pIC50 ([2]; Homo sapiens, COLO 205, 72 h)	pIC50 [2]	pIC50 [1, 3]	pIC50 [1, 4]	pIC50 ([1]; Homo sapiens, Flp-In-293, 24 h, read-out: DLA 205 IC50, dual luciferase assay, Flp-In-293 reporter cells, 24 hours, Fluc/Rluc ratio)	pIC50 ([2]; Homo sapiens)
Cc1nc2c(c(=O)n1CC#Cc1ccc(Cl)cc1-c1ccnc3c(C(=O)O)csc13)CC(N(C)C1CC(F)(F)C1)CC2 (stereo not drawn) [Compound 86]	> 7.00	> 5.30	–	> 6.00	–	–	–
Cc1cc(-c2cc(Cl)ccc2OCCn2c(C)nc3c(c2=O)CC(N(C2CCC2)C2CC(F)(F)C2)CC3)c2scc(C(=O)NS(C)(=O)=O)c2n1 (stereo not drawn) [Compound 98]	> 7.00	> 5.30	–	> 6.00	–	–	–
Cc1sc2c(-c3cc(Cl)ccc3OCCn3c(C)nc4c(c3=O)CC(N(C)CC3CC(F)(F)C3)CC4)cn(C)c(=O)c2c1C(=O)O (single isomer, unassigned) [Compound 252]	> 7.00	–	4.70 to 5.30	–	5.30 to 6.00	–	–
Cc1cc(-c2cc(Cl)ccc2OCCn2c(C)nc3c(c2=O)CC(N2CCCCC2)CC3)c2scc(C(=O)O)c2n1 (single isomer, unassigned) [Compound 250]	> 7.00	–	> 5.30	–	> 6.00	–	–
Cc1cc(-c2cc(Cl)ccc2OCCn2c(C)nc3c(c2=O)CC(N2CC(F)(F)C2)CC3)c2scc(C(=O)NS(C)(=O)=O)c2n1 (stereo not drawn) [Compound 56]	> 7.00	4.70 to 5.30	–	5.30 to 6.00	–	–	–
CC(=O)N(C)C1CCc2nc(C)n(CCOc3ccc(Cl)cc3-c3cccc(C(=O)O)c3)c(=O)c2C1 (stereo not drawn) [Compound 15]	5.30 to 6.30	< 4.70	–	< 5.30	–	–	–
Cc1cc(-c2cc(Cl)ccc2OCCn2c(C)nc3c(c2=O)CC(N2CC(C(F)(F)F)C2)CC3)c2scc(C(=O)NS(C)(=O)=O)c2n1 (single isomer, unassigned) [Compound 322]	> 7.00	–	> 5.30	–	> 6.00	–	–
Cc1cc(-c2cc(Cl)ccc2OCCn2c(C)cc3c(c2=O)CC2(CC3)CN(C)C2)c2scc(C(=O)O)c2n1 [Compound 269]	> 7.00	< 4.70	–	< 5.30	–	–	–
Cc1nc2c(c(=O)n1CC#Cc1ccc(Cl)cc1-c1ccnc3c(C(=O)O)csc13)CC(N1CC(F)C1)CC2 (stereo not drawn) [Compound 355]	> 7.00	4.70 to 5.30	–	> 6.00	–	–	–
Cc1sc2c(-c3cc(Cl)ccc3OCCn3c(C)nc4c(c3=O)CC(N(C)CC3CC(F)(F)C3)CC4)cn(C)c(=O)c2c1C(=O)O (single isomer, unassigned) [Compound 253]	6.30 to 7.00	–	< 4.70	–	< 5.30	–	–
Cc1cc(-c2cc(Cl)ccc2OCCn2c(C)nc3c(c2=O)CC(N2CCCCC2)CC3)c2ccc(C(=O)O)n2n1 (stereo not drawn) [Compound 45, 4-[5-chloranyl-2-[2-[2-methyl-4-oxidanylidene-6-(1-piperidyl)-5,6,7,8-tetrahydroquinazolin-3-yl]ethoxy]phenyl]-2-methyl-pyrrolo[1,2-b]pyridazine-7-carboxylic acid]	> 7.00	> 5.30	–	> 6.00	–	–	–
COc1cc(CN(C)C2CCc3nc(C)n(CCOc4ccc(Cl)cc4-c4cc(C)nc5c(C(=O)O)csc45)c(=O)c3C2)ccn1 (stereo not drawn) [Compound 248]	> 7.00	> 5.30	–	> 6.00	–	–	–
Cc1cc(-c2cc(Cl)ccc2OCCn2c(C)nc3c(c2=O)CC(N2CCC4(COC4)C2)CC3)c2scc(C(=O)O)c2n1 (stereo not drawn) [Compound 26]	> 7.00	> 5.30	–	> 6.00	–	–	–
Cc1cc(-c2cc(Cl)ccc2OCCn2c(C)nc3c(c2=O)CC(N(C)C2CC(F)(F)C2)CC3)c2scc(C(=O)NS(C)(=O)=O)c2n1 (single isomer, unassigned) [Compound 93]	> 7.00	> 5.30	–	> 6.00	–	–	–
Cc1cc(-c2cc(Cl)ccc2OCCn2c(C)nc3c(c2=O)CC(N2CCOCC2)CC3)c2scc(C(=O)O)c2n1 (stereo not drawn) [Compound 9]	> 7.00	–	–	–	–	> 6.00	> 5.30
Cc1cc(-c2cc(Cl)ccc2OCCn2c(C)nc3c(c2=O)CC(N(C)CC2(C)COC2)CC3)c2scc(C(=O)NS(C)(=O)=O)c2n1 (single isomer, unassigned) [Compound 304]	> 7.00	4.70 to 5.30	–	> 6.00	–	–	–
Cc1cc(-c2cc(Cl)ccc2OCCn2c(C)nc3c(c2=O)CC(N2CC(C(F)(F)F)C2)CC3)c2scc(C(=O)NS(C)(=O)=O)c2n1 (single isomer, unassigned) [Compound 321]	> 7.00	> 5.30	–	> 6.00	–	–	–

The next lines start with results.

pIC50 (human eIF4E protein)	pIC50 ([2]; Homo sapiens, COLO 205, 72 h)	pIC50 [2]	SMILES	pIC50 [1, 3]	pIC50 [1, 4]	pIC50 ([1]; Homo sapiens, Flp-In-293, 24 h, read-out: DLA 205 IC50, dual luciferase assay, Flp-In-293 reporter cells, 24 hours, Fluc/Rluc ratio)	pIC50 ([2]; Homo sapiens)
> 7.00	> 5.30	–	Cc1cc(-c2cc(Cl)ccc2OCCn2c(C)nc3c(c2=O)CC(N2CCC(F)(F)C2)CC3)c2scc(C(=O)O)c2n1 (stereo not drawn) [Compound 53]	> 6.00	–	–	–
> 7.00	> 5.30	–	Cc1cc(-c2cc(Cl)ccc2OCCn2c(C)nc3c(c2=O)CC(N(C)Cc2ccncc2)CC3)c2scc(C(=O)NS(C)(=O)=O)c2n1 (stereo not drawn) [Compound 68]	> 6.00	–	–	–
> 7.00	< 4.70	–	Cc1cc(-c2cc(Cl)ccc2OCCn2c(C)nc3c(c2=O)CC(N2CCN(C)C(=O)C2)CC3)c2scc(C(=O)NS(C)(=O)=O)c2n1 (stereo not drawn) [Compound 88]	< 5.30	–	–	–
5.30 to 6.30	–	< 4.70	Cc1nc2c(c(=O)n1CC#Cc1ccc(Cl)cc1-c1ccnc3c(C(=O)O)csc13)CC(N(C)C)CC2 (single isomer, unassigned) [Compound 297]	–	< 5.30	–	–
5.30 to 6.30	< 4.70	–	Cc1cc(-c2cc(Cl)ccc2OCCn2c(C)nc3c(c2=O)CC2(CC3)CCN(C)CC2)c2scc(C(=O)O)c2n1 [Compound 268, 7-(5-chloro-2-(2-(1,2′-dimethyl-4′-oxo-7′,8′-dihydro-4′H-spiro[piperidine-4,6′-quinazolin]-3′(5′H)-yl)ethoxy)phenyl)-5-methylthieno[3,2-b]pyridine-3-carboxylic acid]	< 5.30	–	–	–
> 7.00	> 5.30	–	Cc1cc(-c2cc(Cl)ccc2OCCn2c(C)nc3c(c2=O)CC(N2CC4COCC4C2)CC3)c2scc(C(=O)NS(C)(=O)=O)c2n1 (single isomer, unassigned) [Compound 359]	> 6.00	–	–	–
> 7.00	–	> 5.30	Cc1cc(-c2cc(Cl)ccc2OCCn2c(C)nc3c(c2=O)CC(N(C)C2CC2)CC3)c2scc(C(=O)NS(C)(=O)=O)c2n1 (single isomer, unassigned) [Compound 303]	–	> 6.00	–	–
> 7.00	< 4.70	–	Cc1cc(-c2cc(Cl)ccc2OCCn2c(C)nc3c(c2=O)CC(N2CCC4(CN(C)C4)C2)CC3)c2scc(C(=O)O)c2n1 (stereo not drawn) [Compound 34]	< 5.30	–	–	–
> 7.00	> 5.30	–	Cc1cc(-c2cc(Cl)ccc2OCCn2c(C)nc3c(c2=O)CC(N(C)C2CC(F)(F)C2)CC3)c2scc(C(=O)NS(C)(=O)=O)c2n1 (stereo not drawn) [Compound 63]	> 6.00	–	–	–
> 7.00	< 4.70	–	Cc1cc(-c2cc(Cl)ccc2OCCn2c(C)nc3c(c2=O)CC(N2CC4CN(C)CC4C2)CC3)c2scc(C(=O)O)c2n1 (stereo not drawn) [Compound 27]	< 5.30	–	–	–
> 7.00	> 5.30	–	Cc1cc(-c2cc(Cl)ccc2OCCn2c(C)nc3c(c2=O)CC(N(C2CC2)C2CC(F)(F)C2)CC3)c2scc(C(=O)O)c2n1 (stereo not drawn) [Compound 76]	> 6.00	–	–	–
> 7.00	> 5.30	–	Cc1cc(-c2cc(Cl)ccc2OCCn2c(C)nc3c(c2=O)C[C@H](N2CC[C@@H](F)C2)CC3)c2scc(C(=O)NS(C)(=O)=O)c2n1 (single isomer, unassigned) [Compound 313]	> 6.00	–	–	–
6.30 to 7.00	–	4.70 to 5.30	Cc1cc(-c2cc(Cl)ccc2OCCn2c(C)nc3c(c2=O)CC(N(C)C2CC2)CC3)c2sccc2n1 (single isomer, unassigned) [Compound 307]	–	5.30 to 6.00	–	–
> 7.00	< 4.70	–	Cc1cc(-c2cc(Cl)ccc2OCCn2c(C)nc3c(c2=O)CC(N(C)C(=O)C2CN(CC(F)(F)F)C2)CC3)c2scc(C(=O)O)c2n1 (stereo not drawn) [Compound 72]	< 5.30	–	–	–
> 7.00	> 5.30	–	Cc1cc(-c2cc(Cl)ccc2OCCn2c(C)nc3c(c2=O)CC(N(C2CCC2)C2CC2)CC3)c2scc(C(=O)NS(C)(=O)=O)c2n1 (stereo not drawn) [Compound 317]	> 6.00	–	–	–
> 7.00	> 5.30	–	Cc1cc(-c2cc(Cl)ccc2OCCn2c(C)nc3c(c2=O)CC(N(CC(F)(F)F)C2CCC2)CC3)c2scc(C(=O)NS(C)(=O)=O)c2n1 (stereo not drawn) [Compound 87]	> 6.00	–	–	–
> 7.00	4.70 to 5.30	–	Cc1cc(-c2cc(Cl)ccc2OCCn2c(C)nc3c(c2=O)CC(N(C)C2CCOCC2)CC3)c2scc(C(=O)O)c2n1 (stereo not drawn) [Compound 77]	> 6.00	–	–	–
> 7.00	4.70 to 5.30	–	Cc1cc(-c2cc(Cl)ccc2OCCn2c(C)nc3c(c2=O)CC(N(C)CC2CCNCC2)CC3)c2scc(C(=O)NS(C)(=O)=O)c2n1 (single isomer, unassigned) [Compound 289]	5.30 to 6.00	–	–	–
> 7.00	–	< 4.70	Cc1cc(-c2cc(Cl)ccc2OCCn2c(C)nc3c(c2=O)CC(N(C)Cc2cc[nH]c(=O)c2)CC3)c2scc(C(=O)O)c2n1 (single isomer, unassigned) [Compound 247]	–	< 5.30	–	–
> 7.00	> 5.30	–	Cc1nc2c(c(=O)n1CC#Cc1ccc(Cl)cc1-c1ccnc3c(C(=O)O)csc13)C[C@@H](N1CC[C@@H](F)C1)CC2 (single isomer, unassigned) [Compound 327]	> 6.00	–	–	–
